Measured values published in article PMC9452538, “The antimicrobial peptide LI14 combats multidrug-resistant bacterial infections” (Communications Biology, 2022).
Values after ≈ are worked out from the molar mass of the structure shown. Like-named read-outs stand apart in the source and are kept apart here. Peptide text beside a SMILES is read from it.

How the values were obtained:
MRSA T144 = experiment: Neutropenic mouse thigh infection model; format: in vivo, CD-1 mice; settings: 48 h; for Reduction in CFUs in thigh compared with vehicles: n = 6
Description: (§1) Female CD-1 mice (n = 6 biologically independent animals per group) were first given cyclophosphamide (two consecutive injections of 150 and 100 mg kg^−1 at 4 and 1 day before infection) to construct neutropenia models. The mice’s right thighs were then injected with 100 μL MRSA T144 or E. coli B2 suspensions (10^5 CFUs per mouse). Post-infection of 1 h, 100 μL LI14 peptide (10 or 20 mg/kg), ampicillin/rifampicin (20 mg/kg) or a combination of LI14 with ampicillin/ rifampicin (10 + 20 mg/kg) were given by intraperitoneal injection. All mice were euthanized 48 h after drug administration, and right thigh muscle tissue was removed aseptically, homogenized, serially diluted, and plated on MHA to qualify bacterial loads after overnight incubation at 37 °C.

E. coli B2 [1] = experiment: Neutropenic mouse thigh infection model; format: in vivo, CD-1 mice; settings: 48 h; for Reduction in CFUs in thigh compared with vehicles: n = 6
Description: as §1

[2] = test system: K. pneumoniae D120 (mcr-8); experiment: microbe, parasite or virus in culture; format: cell-based, Klebsiella pneumoniae; settings: D120 (mcr-8)
In short: (§2)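 Standard CLSI broth microdilution (2021 guidelines) in MHB with exponential-phase inoculum.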

[3] = test system: K. pneumoniae ATCC 700603; experiment: microbe, parasite or virus in culture; format: cell-based, Klebsiella pneumoniae; settings: ATCC 700603
In short: as §2

E. coli B2 [4] = format: cell-based, Escherichia coli; settings: E. coli B2
Description: MRSA T144 and E. coli B2 in the exponential growth phase were incubated with LI14 peptide supplemented with 10 mM Na^+, K^+, Mg^2+, 10% Dulbecco’s modified Eagle medium (DMEM), and 10% fetal bovine serum (FBS) for 16–18 h. The stability of LI14 was evaluated by the change of its antibacterial activity under different conditions.
LI14 were preincubated for 1 h at various temperatures (40–121 °C), pH (2–12), and proteases (pepsin, trypsin, and papain, final concentration 1 mg/mL). […] Following the incubation with the proteases, the leftover protease was precipitated with acetonitrile and removed by centrifugation at 3000 × g, followed by a MIC test.
Supplementary Table 4 Thermal, pH, salts and protease stability of AMPs against
MRSA T144 and E. coli B2 (MIC, μg/mL).
Treatment MRSA T144 E. coli B2

MRSA T144 persisters = experiment: Bactericidal activity against persisters; format: cell-based, Staphylococcus aureus; settings: within 2 h
Description: Briefly, the bacteria suspensions after washing were exposed to 50-fold MIC concentrations of vancomycin and tigecycline, respectively, and co-incubation for 4 h to obtain persister cells. […] Subsequently, the primary CFUs/mL were calculated.

CC[C@H](C)[C@H](NC(=O)[C@H](CCCNC(=N)N)NC(=O)[C@H](CS)NC(=O)[C@H](CC(C)C)NC(=O)[C@H](CCCCN)NC(=O)[C@H](CCCCN)NC(=O)[C@H](CC(C)C)NC(=O)[C@@H](NC(=O)[C@H](CCCNC(=N)N)NC(=O)[C@H](CS)NC(=O)[C@H](CC(C)C)NC(=O)[C@H](CCCCN)NC(=O)[C@H](CCCCN)NC(=O)[C@@H](N)CC(C)C)[C@@H](C)CC)C(N)=O [LI14] (H-LKKLCRILKKLCRI-NH2)
Bacterial load in thigh (MRSA T144; LI14 10 mg/kg i.p., animal 1): 6.18 Log10CFUs/thigh | Bacterial load in thigh (MRSA T144; LI14 10 mg/kg i.p., animal 2): 6.30 Log10CFUs/thigh | Bacterial load in thigh (MRSA T144; LI14 10 mg/kg i.p., animal 3): 5.92 Log10CFUs/thigh | Bacterial load in thigh (MRSA T144; LI14 10 mg/kg i.p., animal 4): 5.83 Log10CFUs/thigh | Bacterial load in thigh (MRSA T144; LI14 10 mg/kg i.p., animal 5): 7.15 Log10CFUs/thigh | Bacterial load in thigh (MRSA T144; LI14 10 mg/kg i.p., animal 6): 7.28 Log10CFUs/thigh | Reduction in CFUs in thigh compared with vehicles (MRSA T144; LI14 10 mg/kg i.p.): ~ 2 log10 | Bacterial load in thigh (MRSA T144; LI14 20 mg/kg i.p., animal 1): 4.32 Log10CFUs/thigh | Bacterial load in thigh (MRSA T144; LI14 20 mg/kg i.p., animal 2): 4.36 Log10CFUs/thigh | Bacterial load in thigh (MRSA T144; LI14 20 mg/kg i.p., animal 3): 4.77 Log10CFUs/thigh | Bacterial load in thigh (MRSA T144; LI14 20 mg/kg i.p., animal 4): 4.61 Log10CFUs/thigh | Bacterial load in thigh (MRSA T144; LI14 20 mg/kg i.p., animal 5): 5.45 Log10CFUs/thigh | Bacterial load in thigh (MRSA T144; LI14 20 mg/kg i.p., animal 6): 5.51 Log10CFUs/thigh | Reduction in CFUs in thigh compared with vehicles (MRSA T144; LI14 20 mg/kg i.p.): 4 log10 | Bacterial load in thigh (E. coli B2 [1]; LI14 10 mg/kg i.p., animal 1): 5.99 Log10CFUs/thigh | Bacterial load in thigh (E. coli B2 [1]; LI14 10 mg/kg i.p., animal 2): 5.91 Log10CFUs/thigh | Bacterial load in thigh (E. coli B2 [1]; LI14 10 mg/kg i.p., animal 3): 6.58 Log10CFUs/thigh | Bacterial load in thigh (E. coli B2 [1]; LI14 10 mg/kg i.p., animal 4): 6.66 Log10CFUs/thigh | Bacterial load in thigh (E. coli B2 [1]; LI14 10 mg/kg i.p., animal 5): 7.36 Log10CFUs/thigh | Bacterial load in thigh (E. coli B2 [1]; LI14 10 mg/kg i.p., animal 6): 7.31 Log10CFUs/thigh | Reduction in CFUs in thigh compared with vehicles (E. coli B2 [1]; LI14 10 mg/kg i.p.): ~ 2 log10 | Bacterial load in thigh (E. coli B2 [1]; LI14 20 mg/kg i.p., animal 1): 4.93 Log10CFUs/thigh | Bacterial load in thigh (E. coli B2 [1]; LI14 20 mg/kg i.p., animal 2): 4.99 Log10CFUs/thigh | Bacterial load in thigh (E. coli B2 [1]; LI14 20 mg/kg i.p., animal 3): 4.71 Log10CFUs/thigh | Bacterial load in thigh (E. coli B2 [1]; LI14 20 mg/kg i.p., animal 4): 4.79 Log10CFUs/thigh | Bacterial load in thigh (E. coli B2 [1]; LI14 20 mg/kg i.p., animal 5): 5.69 Log10CFUs/thigh | Bacterial load in thigh (E. coli B2 [1]; LI14 20 mg/kg i.p., animal 6): 5.66 Log10CFUs/thigh | Reduction in CFUs in thigh compared with vehicles (E. coli B2 [1]; LI14 20 mg/kg i.p.): 4 log10 | MIC [2]: 32 µg/mL (≈ 18.5 µM) | MIC [3]: 32 µg/mL (≈ 18.5 µM) | MIC (E. coli B2 [4]; Control): 4 µg/mL (≈ 2.32 µM) | MIC (E. coli B2 [4]; KCl 10 mM): 4 µg/mL (≈ 2.32 µM) | MIC (E. coli B2 [4]; NaCl 10 mM): 4 µg/mL (≈ 2.32 µM) | MIC (E. coli B2 [4]; Serum (10%), fetal bovine serum): 4 µg/mL (≈ 2.32 µM) | MIC (E. coli B2 [4]; peptide preincubated 1 h at 40℃): 4 µg/mL (≈ 2.32 µM) | MIC (E. coli B2 [4]; peptide preincubated 1 h at 60℃): 4 µg/mL (≈ 2.32 µM) | MIC (E. coli B2 [4]; peptide preincubated 1 h at 80℃): 4 µg/mL (≈ 2.32 µM) | MIC (E. coli B2 [4]; peptide preincubated 1 h at 121℃): 4 µg/mL (≈ 2.32 µM) | MIC (E. coli B2 [4]; peptide preincubated 1 h at pH 2, readjusted to pH 7.2): 4 µg/mL (≈ 2.32 µM) | MIC (E. coli B2 [4]; peptide preincubated 1 h at pH 4, readjusted to pH 7.2): 4 µg/mL (≈ 2.32 µM) | MIC (E. coli B2 [4]; peptide preincubated 1 h at pH 6, readjusted to pH 7.2): 4 µg/mL (≈ 2.32 µM) | MIC (E. coli B2 [4]; peptide preincubated 1 h at pH 8, readjusted to pH 7.2): 4 µg/mL (≈ 2.32 µM) | MIC (E. coli B2 [4]; peptide preincubated 1 h at pH 10, readjusted to pH 7.2): 4 µg/mL (≈ 2.32 µM) | MIC (E. coli B2 [4]; peptide preincubated 1 h at pH 12, readjusted to pH 7.2): 4 µg/mL (≈ 2.32 µM) | Clearance rate against persisters (MRSA T144 persisters): above 99%
